From patent publication US7232809B2, “Mitochondrially targeted antioxidants” (Antipodean Pharmaceuticals, Inc., priority 1997, dated 2007)

Assays:
[1] = tested on: 143B cells; test: Uptake of compound 1 by intact cells; format: cell-based, human
Experimental: The mitochondrial specific accumulation of compound 1 also occurs in intact cells. This was measured as described by Burns and Murphy, 1997 and the accumulation was prevented by dissipating both the mitochondrial and plasma membrane potentials. […] Therefore the accumulation of compound 1 into cells is driven by the mitochondrial membrane potential.
(§1) The next step was to determine whether compound 1 was accumulated by intact cells. […] A proportion of this uptake of compound 1 into cells was inhibited by blocking the plasma and mitochondrial membrane potentials (FIG. 9). This energisation-sensitive uptake corresponds to an intra mitochondrial concentration of compound 1 of about 2–4 mM, which is sufficient to protect mitochondria from oxidative damage.
Here 10^6 143B cells (closed symbols) or ρ° cells (open symbols) were incubated with 1 μM [3H] compound 1 and the compound 1 accumulation ratio determined. Human osteosarcoma 143B cells and a derived ρ° cell line lacking mitochondrial DNA were cultured in DMEM/10% FCS (foetal calf serum) supplemented with uridine and pyruvate under an atmosphere of 5% CO2/95% air at 37° C., grown to confluence and harvested for experiments by treatment with trypsin. To measure [^3H] compound 1 accumulation cells (10^6) were incubated in 1 ml HEPES-buffered DMEM. At the end of the incubation, cells were pelleted by centrifugation, the cell pellet and the supernatant prepared for scintillation counting and the accumulation ratio [compound 1/mg protein)/(compound 1/μl)]calculated.
Human osteosarcoma 143B cells were incubated in 1 ml HEPES-buffered DMEM with 1-50 μM compound 1 supplemented with 6–60 nCi/ml [^3H] compound 1. To determine the energistration-dependent uptake, parallel incubations with 12.5 μM oligomycin, 20 μM FCCP; 10 μM myxathiazol. 100 nM valinomycin and 1 mM ouabain were carried out. At the end of the incubation, cells were pelleted by centrifugation and prepared for scintillation counting and the energisation-sensitive uptake determined.

[2] = tested on: 143B cells; test: Cell viability by lactate dehydrogenase release; format: cell-based, human; settings: 24 h, LDH release, concentrations giving 2–4 mM intramitochondrial
Experimental: as §1
Here, confluent 143B cells in 24 well tissue culture dishes were incubated with various concentrations of compound 1 for 24 h and cell viability measured by lactate dehydrogenase release.

[3] = tested on: rat liver mitochondria; test: Uptake of [3H] compound 1 by energised rat liver mitochondria
[4] = tested on: rat liver mitochondria; test: Effect of compound 1 on membrane potential and respiration rate of isolated mitochondria; settings: at the concentrations that afford protection
[5] = tested on: rat liver mitochondria; test: Protection of mitochondrial function (membrane potential) from iron/ascorbate oxidative damage; format: biochemical; settings: 5 μM, compared with Vitamin E
Experimental: Energised rat liver mitochondria were incubated with iron/ascorbate with no additions (stippled bars), 5 μM compound 1 (filled bars), 5 μM α-tocopherol. (open bars) or 5 μM TPMP (cross hatched bars), and then isolated and the membrane potential generated by respiratory substrates measured relative to control incubations in the absence of iron/ascorbate. Rat liver mitochondria were incubated at 25° C. in a shaking water bath in 2 ml medium containing 100 mM KCl, 10 mM Tris, pH 7.7, supplemented with rotenone (1.33 μg/ml), 10 mM succinate, 500 μM ascorbate and other additions. […] TPMP either 10 mM glutamate and malate, 10 mM succinate and rotenone, or 5 mM ascorbate/100 μM TMPD with rotenone and myxothiazol (2 μg/ml), incubated at 25° C. for 3 min then pelleted and the membrane potential determined as above and compared with an incubation that had not been exposed to oxidative stress.

[6] = tested on: rat liver mitochondria; test: Protection of mitochondria against oxidative damage (TBARS, protein carbonyls); format: biochemical
Experimental: Mitochondria were exposed to oxidative stress by incubation with iron/ascorbate and the effect of compound 1 on oxidative damage assessed by measuring TBARS (filled bars) and protein carbonyls (open bars). Rat liver mitochondria (10 mg protein) were incubated at 25° C. in a shaking water bath in 2 ml medium containing 100 mM KCl, 10 mM Tris, pH 7.7, supplemented with rotenone (1.33 μg/ml), 10 mM succinate, 500 μM ascorbate and other additions. After preincubation for 5 min, 100 μM FeSO4 was added and 45–55 min later duplicate samples were removed and assayed for TBARS or protein carbonyls.
Energised rat liver mitochondria were exposed to tert-butylhydroperoxide and the effect of compound 1 (filled bars), α-tocopherol (open bars), compound 1+333 nM FCCP (stippled bars) or the simple lipophilic cation bromobutyl triphenylphosphonium (cross hatched bars) on TBARS formation determined.

[7] = tested on: rat brain homogenates; test: Inhibition of lipid peroxidation in rat brain homogenates (TBARS assay); format: biochemical; settings: TBARS, read-out: concentration that inhibited oxidative stress by 50%
Experimental: The rat brain homogenates were incubated with or without various concentrations of the test compounds (compound 1; native Vitamin E (α-tocopherol), bromobutyl triphenylphosphonium bromide, Trolox (a water soluble form of Vitamin E) and compound 2, ie2-(2-bromoethyl)-3,4-dihydro-2,5,7,8-tetramethyl-2H-1-benzopyran-6-ol, the precursor of compound 1 (“Brom Vit E”)) and the oxidative damage occurring over the incubation was quantitated using the TBARS assay (Stocks et al., 1974, Clin Sci Mol Med 47,215–222). From this the concentration of compound required to inhibit oxidative damage by 50% was determined. In this system 210 nM compound 1 inhibited oxidative stress by 50% while the corresponding value for native Vitamin E was 36 nM. The value for bromobutyltriphenylphosphonium bromide, which contains the triphenylphosphonium moiety but not the antioxidant Vitamin E moiety was 47 μM. […] Further details of the experimental procedures and results are set out below.
(§2) The IC50 values for inhibition of lipid peroxidation were determined in rat brain homogenates, and are means±SEM or range of determinations on 2–3 brain preparations. Octan-1-ol/PBS partition coefficients are means±SEM for three independent determinations. N.D. not determined. Partition coefficients were determined by mixing 200 μM of the compound in 2 ml water-saturated octanol-1-ol with 2 ml octanol-saturated-PBS at room temperature for 1 h, then the two layers were separated by brief centrifugation and their concentrations determined spectrophotometrically from standard curves prepared in PBS or octanol. To measure antioxidant efficacy four rat brains were homogenised in 15 ml 40 mM potassium phosphate (pH 7.4), 140 mM NaCl at 4° C., particulate matter was pelleted (1,000×g at 4° C. for 15 min) and washed once and the combined supernatants stored frozen. Aliquots were rapidly thawed and 5 mg protein suspended in 800 μl PBS containing antioxidant or ethanol carrier and incubated at 37° C. for 30 min. Thiobarbituric acid reactive species (TBARS) were quantitated at 532 nm by adding 200 μl conc. HClO4 and 200 μl 1% thiobarbituric acid to the incubation, heating at 100° C. for 15 min and then cooling and clarification by centrifugation (10,000×g for 2 min).

[8] = Octan-1-ol/PBS partition coefficient; format: physicochemical; settings: 200 μM, room temperature, 1 h, means±SEM of three
Experimental: as §2

intra mitochondrial concentration from energisation-sensitive uptake ([1]; 143B cells, 1 h incubation): 2 to 4 mM
accumulation by cells containing defective mitochondria ([1]; cells without mitochondrial membrane potential): not accumulated
accumulation by intact cells ([1]; intact 143B cells): rapidly accumulated
effect of uncoupler FCCP on accumulation into mitochondria ([3]; addition of FCCP): blocked
accumulation ratio into mitochondria ([3]; energised rat liver mitochondria, membrane potential about 180 mV): about 6,000
proportion membrane-bound within mitochondria ([3]; inferred from uptake of TPMP and compound 1 at the same membrane potential): about 84%
intramitochondrial concentration ([3]; isolated mitochondria, range of concentrations of compound 1 (FIG. 2)): 4 to 8 mM
slope of accumulation ratio of compound 1 relative to that of TPMP ([3]; range of membrane potentials, 10 μM compound 1, 1 μM TPMP, 3 min): 2.472
IC50 [7]: 210 nM
Octanol:PBS partition coefficient [8]: 7.37 ± 1.56
SMILES: Cc1c(C)c2c(c(C)c1O)CCC(C)(CC[P+](c1ccccc1)(c1ccccc1)c1ccccc1)O2 (centres unmarked) [compound 1]
toxicity to cells [2]: not toxic to cells
time for reversal of accumulation by FCCP ([3]; FCCP added after accumulation): < 10 s
time for uptake into mitochondria ([3]; energised rat liver mitochondria): < 10 s
damage to mitochondria [4]: not damaging to mitochondria
protection of mitochondrial function (ability to generate a membrane potential) [5]: far more effectively than Vitamin E itself
protection of mitochondria against oxidative damage (lipid peroxidation and protein carbonyl formation) ([6]; mitochondria exposed to oxidative stress): protected them against oxidative damage
antioxidant protection with uncoupler FCCP ([6]; mitochondria incubated with FCCP to prevent uptake): prevented
